Results on 55 molecules are retold here after patent US20030229066A1, “Novel heterocyclic urea derivatives and their use as dopamine D3 receptor ligands” (priority 2001, published 2003).

T1 sequence (P35462 whole entry): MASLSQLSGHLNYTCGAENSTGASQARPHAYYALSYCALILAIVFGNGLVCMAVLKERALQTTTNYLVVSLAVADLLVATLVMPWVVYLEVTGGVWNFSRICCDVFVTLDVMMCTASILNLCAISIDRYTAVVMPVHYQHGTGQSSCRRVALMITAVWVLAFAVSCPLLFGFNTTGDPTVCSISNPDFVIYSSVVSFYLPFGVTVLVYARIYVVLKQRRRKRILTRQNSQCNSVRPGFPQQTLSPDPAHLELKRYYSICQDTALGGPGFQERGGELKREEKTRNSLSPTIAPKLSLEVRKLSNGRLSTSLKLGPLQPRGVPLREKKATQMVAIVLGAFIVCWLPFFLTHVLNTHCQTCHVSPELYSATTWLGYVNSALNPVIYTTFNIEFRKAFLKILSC

One experiment has as its target T1, cloned human dopamine D3 receptors (Homo sapiens, UniProt P35462).
T1 construct: expressed in transfected cells
Description: [N-Methyl-3H]Spiroperidol binding to cloned human dopamine D3 receptors.
Conditions: not given
The text has this: [N-Methyl-^3H]Spiroperidol Binding to Cloned Human Dopamine D3 Receptors
This assay measures the in vitro activity of compounds on cloned human dopamine (D3) receptors and predicts the direct dopamine-blocking properties of putative neuropsychiatric agents at human dopamine D3 receptors.
The D3 gene was isolated from a human striatal cDNA library (Stratagene). The gene was sequenced and sub-cloned into the expression vector RC/RSV (Invitrogen). CHO (Chinese Hamster Ovary) cells were stably transfected with 10 μg of the D3/RSV plasmid using the DOTAP method from Boehringer Mannheim and 72 clones that were G418 resistant were isolated. Using mRNA and binding displacement data a single high expressing clone was identified. This clone was then grown in large batches for the purpose of developing a 96 well format assay.
The cells are harvested into 250 ml centrifuge tubes with 100 volumes of cold phosphate buffered saline (PBS) and spun down (1200×G for 10 min at 4° C.). The medium is removed and 100 ml PBS are added to each centrifuge tube, cells are resuspened and spun down again. The PBS is removed and the final pellet is homogenized in an appropriate volume of 10% DMSO with a polytron on ice at a medium setting.
For Kj determinations: [^3H]NMSP is made up to a concentration of 2.7 nM in buffer 2b, such that when 150 μl is added to each tube a final concentration of 0.4 nM is attained in the 1 ml assay. Samples of total CPM added are taken for each experiment to calculate the total ligand concentration.
5. S(-)-Eticlopride is obtained from Research Biochemicals International (RBI catalog number E-101). A refrigerated stock (good for up to a month) solution of S(-)-eticlopride is made at a concentration of 30 μM in buffer 2b. One hundred microliters are added to 3 wells for the determination of nonspecific binding (this yields a final concentration of 3 μM in the 1 ml assay).
For most assays, a 100 μM stock solution of the test compound is made up in a suitable solvent (usually <0.1% acetic acid) and serially diluted with buffer 2b, such that when 100 μl of drug is combined with the total 1 ml assay, final concentrations ranging from 10^−5-10^−8 M are attained. Characteristically eight concentrations are studied for each assay; however, higher or lower concentrations may be used, depending on the potency of the drug.
The 96-Well Packard Unifilters GF/B are incubated for >1 h at 25° C. in 0.1% polyethylamine (from 3,b). The cold tissue is added last and mixed on a orbital shaker for a few seconds and is then incubated at 37° C. for 30 min in a shaking water bath. The assay is stopped by rapid filtration through Packard Unifilter plates. The filter membranes are then washed with 15 ml of ice-cold 0.05 M Tris buffer. The filters are then dried (˜15 min under a heat lamp or incubated for 15 min in a 60° C. oven) and a bottom seal is applied. Then 40 μl of Packard Microscint 20 scintillation cocktail is added and a permanent topseal (Type P) is applied and heat sealed. The plates are then shaken on an orbital shaker for 1 h and placed in the Packard Topcount and counted for at least 5 minutes for each point.
Specific binding is defined as the difference between total binding and the binding in the presence of 3 μM S-(-)-eticlopride. Total binding is approximately 10% of the total added ligand. Cheng-Prusoff determination (Kj's) are performed using Prism software using a one-site competition curve analysis where the top and the bottom of the non-linear regression are held constant at 0% and 100% percent inhibition. The percent inhibition at each drug concentration is the mean of duplicate determinations.
The molecule `C=CCN(CC1CC1CN1CCCN(c2csc3cc(F)ccc23)CC1)C(=O)Nc1ccc(OC)cc1` (racemic) [compound 830389] showed a Ki of 2.97 nM.

For `O=C(Nc1ccc(OC(F)(F)F)cc1)N(Cc1ccccc1)CC1CC1CN1CCCN(c2csc3cc(F)ccc23)CC1` (racemic) [compound 830400], the Ki came out at 41.3 nM.

The molecule `O=C(Nc1ccc(Cl)c(Cl)c1)N(Cc1ccccc1)CC1CC1CN1CCCN(c2csc3cc(F)ccc23)CC1` (racemic) [compound 830401] showed a Ki of 29.7 nM.

On to `COc1ccc(NC(=O)NCC2CC2CN2CCCN(c3csc4cc(F)ccc34)CC2)cc1` (racemic) [compound 830408], for which the Ki stood at 3.43 nM.

`O=C(NCC1CC1CN1CCCN(c2csc3cc(F)ccc23)CC1)Nc1ccc(Cl)c(Cl)c1` (racemic) [compound 830409] displayed a Ki of 47.4 nM.

On to `CC(C)(C)NC(=O)NCC1CC1CN1CCC(c2noc3ccsc23)CC1` (racemic) [compound 831498], for which the Ki turned out to be 43.6 nM.

For `O=C(NCCc1ccccc1)NCC1CC1CN1CCC(c2noc3ccsc23)CC1` (racemic) [compound 831670], the Ki came out at 159 nM.

The experiment is the same for the next values; noted with them: Table III; read-out: d3Ki.
With `COc1ccc(NC(=O)NCCCCN2CCN(c3csc4cc(C(F)(F)F)ccc34)CC2)cc1` [815994A], the Ki amounted to 5.94 nM.

In the case of `Cc1ccc(NC(=O)NCCCCN2CCN(c3csc4cc(C(F)(F)F)ccc34)CC2)cc1` [815997A], the Ki worked out at 4.08 nM.

As for `CC(=O)c1ccc(NC(=O)NCCCCN2CCN(c3c(Cl)sc4cc(F)ccc34)CC2)cc1` [compound 815158], the Ki was found to be 7.4 nM.

For `O=C(NCCCCN1CCN(c2c(Cl)sc3cc(F)ccc23)CC1)Nc1ccc(Oc2ccccc2)cc1` [compound 815159], the Ki was 85.4 nM.

Take `O=C(NCCCCN1CCN(c2c(Cl)sc3cc(F)ccc23)CC1)Nc1ccc(-c2ccccc2)cc1` [compound 815160]: the Ki worked out at 192 nM.

`O=C(NCCCCN1CCN(c2c(Cl)sc3cc(F)ccc23)CC1)Nc1ccc(OCc2ccccc2)cc1` [compound 815161]: the Ki was 75.9 nM.

With `O=C(NCCCCN1CCN(c2c(Cl)sc3cc(F)ccc23)CC1)Nc1ccc(C(F)(F)F)cc1` [compound 815162], the Ki was 38 nM.

Turning to `O=C(NCCCCN1CCN(c2c(Cl)sc3cc(F)ccc23)CC1)Nc1cccc(F)c1` [compound 815163], the Ki is 25.2 nM.

Regarding `O=C(NCCCCN1CCN(c2c(Cl)sc3cc(F)ccc23)CC1)Nc1ccc(F)cc1` [compound 815164], the Ki is 31.9 nM.

For `COc1ccc(NC(=O)NCCCCN2CCN(c3c(Cl)sc4cc(F)ccc34)CC2)cc1` [compound 815165], the Ki came out at 21.4 nM.

On to `CCCCOc1ccc(NC(=O)NCCCCN2CCN(c3c(Cl)sc4cc(F)ccc34)CC2)cc1` [compound 815166], for which the Ki was 37 nM.

As to `CC(C)c1ccc(NC(=O)NCCCCN2CCN(c3c(Cl)sc4cc(F)ccc34)CC2)cc1` [compound 815167], the Ki was 48 nM.

Consider `O=C(NCCCCN1CCN(c2c(Cl)sc3cc(F)ccc23)CC1)Nc1ccc(I)cc1` [compound 815168], for which the Ki was 33.4 nM.

Turning to `O=C(NCCCCN1CCN(c2c(Cl)sc3cc(F)ccc23)CC1)Nc1ccccc1Cl` [compound 815169], the Ki worked out at 11.2 nM.

As for `CCCCc1ccc(NC(=O)NCCCCN2CCN(c3c(Cl)sc4cc(F)ccc34)CC2)cc1` [compound 815170], the Ki turned out to be 17.7 nM.

As to `Cc1ccc(NC(=O)NCCCCN2CCN(c3c(Cl)sc4cc(F)ccc34)CC2)cc1` [compound 815171], the Ki worked out at 3.8 nM.

Regarding `O=C(NCCCCN1CCN(c2c(Cl)sc3cc(F)ccc23)CC1)Nc1ccc(Cl)cc1` [compound 815172], the Ki is 5.6 nM.

`O=C(NCCCCN1CCN(c2c(Cl)sc3cc(F)ccc23)CC1)Nc1ccccc1C(F)(F)F` [compound 815173]: the Ki was 46.5 nM.

As to `O=C(NCCCCN1CCN(c2c(Cl)sc3cc(F)ccc23)CC1)Nc1ccc(Br)cc1` [compound 815174], the Ki amounted to 6 nM.

For the molecule `O=C(NCCCCN1CCN(c2c(Cl)sc3cc(F)ccc23)CC1)Nc1cccc2ccccc12` [compound 815175], the Ki was found to be 11.8 nM.

Turning to `O=C(NCCCCN1CCN(c2c(Cl)sc3cc(F)ccc23)CC1)NCc1ccccc1` [compound 815177], the Ki was determined as 18 nM.

As to `S=C(NCCCCN1CCC(c2noc3ccsc23)CC1)Nc1ccccc1` [compound 815383], the Ki was found to be 190 nM.

For `O=C(NCCCCN1CCC(c2noc3ccsc23)CC1)Nc1ccc(Br)cc1` [compound 815386], the Ki came to 18 nM.

Turning to `O=C(NCCCCN1CCC(c2noc3ccsc23)CC1)Nc1ccc(-c2ccccc2)cc1` [compound 815387], the Ki amounted to 28 nM.

On to `O=C(NCCCCN1CCC(c2noc3ccsc23)CC1)NC1CCCCC1` [compound 815389], for which the Ki was 30 nM.

With `O=C(NCCCCN1CCC(c2noc3ccsc23)CC1)Nc1cccc2ccccc12` [compound 815390], the Ki amounted to 52 nM.

As to `O=C(NCCCCN1CCC(c2noc3ccsc23)CC1)Nc1ccc(Oc2ccccc2)cc1` [compound 815391], the Ki was 16 nM.

As for `O=C(NCCCCN1CCC(c2noc3ccsc23)CC1)NC12CC3CC(CC(C3)C1)C2` [compound 815392], the Ki came out at 24 nM.

For `CCc1cccc(NC(=O)NCCCCN2CCC(c3noc4ccsc34)CC2)c1` [compound 815934], the Ki amounted to 4.19 nM.

For the molecule `O=C(NCCCCN1CCC(c2noc3ccsc23)CC1)Nc1ccc(OC(F)(F)F)cc1` [compound 815935], the Ki was found to be 53.8 nM.

Consider `O=C(NCCCCN1CCC(c2noc3ccsc23)CC1)Nc1cc(C(F)(F)F)ccc1Cl` [compound 815936], for which the Ki was found to be 3.91 nM.

With `CC(NC(=O)NCCCCN1CCC(c2noc3ccsc23)CC1)c1ccc(Br)cc1` (stereo not shown) [compound 815937], the Ki turned out to be 66.3 nM.

With `CCO[Si](CCCNC(=O)NCCCCN1CCC(c2noc3ccsc23)CC1)(OCC)OCC` [compound 815938], the Ki was found to be 153 nM.

In the case of `O=C(NCCCCN1CCC(c2noc3ccsc23)CC1)Nc1ccccc1Br` [compound 815939], the Ki came out at 19.1 nM.

Take `CCNC(=O)NCCCCN1CCC(c2noc3ccsc23)CC1` [compound 815940]: the Ki turned out to be 140 nM.

`CCOC(=O)c1ccccc1NC(=O)NCCCCN1CCC(c2noc3ccsc23)CC1` [compound 815941]: the Ki was determined as 128 nM.

Take `CCOC(=O)C(CC(C)C)NC(=O)NCCCCN1CCC(c2noc3ccsc23)CC1` (stereo not shown) [compound 815942]: the Ki is 41.7 nM.

Consider `CCOC(=O)CCNC(=O)NCCCCN1CCC(c2noc3ccsc23)CC1` [compound 815943], for which the Ki was found to be 198 nM.

Turning to `COC(=O)C(Cc1ccccc1)NC(=O)NCCCCN1CCC(c2noc3ccsc23)CC1` (stereo not shown) [compound 815944], the Ki amounted to 297 nM.

Turning to `O=C(NCCCCN1CCC(c2noc3ccsc23)CC1)NCc1cc(=O)oc2cc3c(cc12)OCO3` [compound 815945], the Ki was found to be 116 nM.

In the case of `CCCCCCCCNC(=O)NCCCCN1CCC(c2noc3ccsc23)CC1` [compound 815946], the Ki turned out to be 28.3 nM.

As for `COc1c(Cl)cccc1NC(=O)NCCCCN1CCC(c2noc3ccsc23)CC1` [compound 815947], the Ki turned out to be 26 nM.

Regarding `O=C(NCCCCN1CCC(c2noc3ccsc23)CC1)Nc1ccccc1F` [compound 815948], the Ki worked out at 6.04 nM.

With `O=C(NCCCCN1CCC(c2noc3ccsc23)CC1)Nc1ccccc1Cl` [compound 815949], the Ki was found to be 13.6 nM.

As for `CC(C)c1ccccc1NC(=O)NCCCCN1CCC(c2noc3ccsc23)CC1` [compound 815952], the Ki amounted to 27 nM.

Take `C=C(C)c1cccc(C(C)(C)NC(=O)NCCCCN2CCC(c3noc4ccsc34)CC2)c1` [compound 815953]: the Ki was found to be 67.9 nM.

Take `CCOC(=O)c1ccc(NC(=O)NCCCCN2CCC(c3noc4ccsc34)CC2)cc1` [compound 815954]: the Ki is 14.9 nM.

Turning to `O=C(NCCCCN1CCN(c2csc3cc(C(F)(F)F)ccc23)CC1)Nc1cccc2ccccc12` [compound 815996], the Ki was found to be 5.85 nM.
